The source of these data is PubChem BioAssay AID179 (DTP/NCI, 2004).

Structures are written as SMILES. Calls of active or inactive are those of the source.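 The calls were made as follows: active = compounds giving half or more protection of infected cells from virus-caused growth loss, again on retest; inactive = the rest.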 A value given as a limit tells only on which side of the number the result lay.

This experiment relates to CEM cells HIV-1 protection, formazan growth assay. The experiment can be described thus: NCI AIDS Antiviral Assay. To be noted: for IC50: measured here: growth of uninfected CEM cells. Summed up: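 Steps: treat uninfected and HIV-1-infected human CEM cells at five drug levels; quantify growth by soluble formazan; retest any compound reaching 50% protection; classify actives from the retest.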

Regarding `C(=C\c1ccc2ccccc2n1)/c1ccc2c(c1)OCO2`, the EC50 – broadly, the concentration that produces a half-maximal response – is over 200 µM and the IC50 (as a rule, the concentration needed to halve the response being measured) was over 200 µM.

On to `O=C1NC(=O)C(c2ccccc2)O1` (stereo not given), for which the EC50 was over 1410 µM and the IC50 is 447 µM.

Consider `O=[n+]1c2c(n([O-])c3ccc4ccccc4c31)-c1cccc3cccc-2c13`, for which the EC50 is over 100 µM and the IC50 was over 100 µM.

Consider `COc1cccc(CCNC(=O)Cc2ccccc2CCO)c1`, for which the EC50 is over 200 µM and the IC50 was over 200 µM.

As to `CC(=O)c1ccc(NC(=O)C(=O)C(C(=O)c2ccc(Cl)c(Cl)c2)C2OC(=O)c3ccccc32)cc1` (stereo not given), the EC50 was over 87.1 µM and the IC50 turned out to be 12.6 µM.

In the case of `CC(=O)N=C1N(/C=C2\C(=O)Oc3ccccc3C2=O)C(=O)/C(=C/c2cccc(Cl)c2Cl)N1C`, the EC50 is over 200 µM and the IC50 stood at 26.3 µM.

Consider `O=c1cc(-c2ccc(Cl)cc2)oc2cc(OCCCOc3ccc4c(=O)cc(-c5ccc(Cl)cc5)oc4c3)ccc12`, for which the EC50 was over 0.646 µM and the IC50 is over 0.646 µM.

As for `O=C(O)C1CCC(=O)N1S(=O)(=O)c1ccccc1` (stereo not given), the outcome was inactive.

Turning to `CCOC(=O)Cn1c(=O)c2nc(SC)sc2n(-c2ccccc2)c1=S`, the EC50 was over 200 µM and the IC50 was over 200 µM.

Consider `COC(=O)c1cc(Cc2cc(Br)cc(C(=O)OC)c2O)cc(Cl)c1O`, for which the EC50 was over 100 µM and the IC50 is over 100 µM.

For the compound `COC(=O)C(=O)C(CC(=O)Nc1cc(Cl)ccc1Cl)C(=O)OC` (stereo not given), the EC50 is over 7.59 µM and the IC50 is over 7.59 µM.

With `O=C(NCCNCCNC(=O)c1cc(-c2ccccc2)nc2ccccc12)c1cc(-c2ccccc2)nc2ccccc12`, the EC50 was over 20 µM and the IC50 worked out at 3.47 µM.

In the case of `Cc1ccc(-c2c(C#N)c(-c3ccc([N+](=O)[O-])cc3)c(C#N)c(=O)n2NS(=O)(=O)c2ccccc2)cc1`, the EC50 was over 200 µM and the IC50 turned out to be 16.6 µM.

As for `N=[N+]=CC(=O)OCC(N)C(=O)O` (stereo not given), the EC50 is over 200 µM and the IC50 was 2.88 µM.

As to `COc1ccc2c(c1)CC[C@@H]1[C@@H]2CC[C@]2(C)/C(=N/OCCN3CCCCC3)CC[C@@H]12`, the EC50 is over 20 µM and the IC50 is 3.16 µM.

In the case of `C1=Cc2nc1c(-c1ccccc1)c1ccc([n-]1)c(-c1ccccc1)c1nc(c(-c3ccccc3)c3ccc([n-]3)c2-c2ccccc2)C=C1.[Zn+2]`, the EC50 is over 27.5 µM and the IC50 is over 27.5 µM.

With `C(=N\Nc1nnc2c(n1)[nH]c1ccccc12)/c1cccnc1`, the EC50 is over 200 µM and the IC50 is over 200 µM.

Turning to `O=C1/C(=C/c2ccccc2)CN(C(=O)CCN2CCOCC2)C/C1=C\c1ccccc1`, the EC50 is over 79.4 µM and the IC50 worked out at 0.525 µM.

With `Cc1cc(NS(=O)(=O)c2ccc(NC(=O)COC(=O)c3cccc4c(=O)c5ccccc5[nH]c34)cc2)no1`, the outcome was inactive.

Consider `CCN(CC)c1ccc2c(c1)Oc1ccc(N(CC)CC)cc1C21Oc2ccccc2-c2c1c1ccccc1n2CC` (stereo not given), for which the outcome was inactive.

`CC(=O)OC1COC(Nn2c(=O)[nH]c3ccccc3c2=O)C(OC(C)=O)C1OC(C)=O` (stereo not given): the EC50 is over 200 µM and the IC50 was over 200 µM.

As for `Oc1c(Cl)cccc1SSc1cccc(Cl)c1O`, the EC50 was over 200 µM and the IC50 worked out at 34.7 µM.

With `CN(C)c1ccc(C(C=C2c3ccccc3Sc3ccccc32)=C(C#N)C#N)cc1`, the result was inactive.

Take `CCCCCC(=O)c1c(O)cc2c(c1O)C(=O)c1c(O)cc(O)cc1C2=O`: the EC50 is over 200 µM and the IC50 came to 56.2 µM.

In the case of `O=C(Nc1ccccc1-c1nn(C(=S)Nc2ccccc2)c(=S)n(C(=S)Nc2ccccc2)c1=O)C(F)(F)F`, the outcome was inactive.

As to `CCNc1ncnc2c1ncn2C1OC(CO)CC1F` (stereo not given), the EC50 was over 224 µM and the IC50 is over 224 µM.

For `C(=C/c1ccnc2ccccc12)/c1cccs1`, the EC50 is 0.0631 µM and the IC50 was found to be 47.9 µM.

On to `COc1ccc2nc3ccc(OC)cc3c(SCc3ccc([N+](=O)[O-])cc3)c2c1`, for which the EC50 is over 200 µM and the IC50 is over 200 µM.

Turning to `COc1cc(C2C(Cl)C(=O)N2NC(=O)c2ccc(N)cc2)cc(Br)c1O` (stereo not given), the EC50 was over 200 µM and the IC50 stood at 13.2 µM.

On to `Cc1cc(S(=O)(=O)O)c(NC(=O)C(=O)Cc2cc(=O)oc3cc(O)ccc23)cc1Cl`, for which the EC50 is over 79.4 µM and the IC50 was over 79.4 µM.

Consider `Clc1ccc(SSc2ccc(Cl)cc2Cl)c(Cl)c1`, for which the EC50 was over 200 µM and the IC50 is 6.76 µM.

As to `NC(=O)c1ccc(NCC2=CC(=O)C=CC2=O)cc1`, the EC50 was over 40.7 µM and the IC50 turned out to be 17.4 µM.

Regarding `COC(=O)c1cccc(OC)c1C#Cc1c(OC)cccc1OC`, the EC50 was over 200 µM and the IC50 turned out to be 21.9 µM.

With `S=c1[nH]nc(COc2ccc(Cl)cc2)o1`, the EC50 is over 204 µM and the IC50 is over 204 µM.

Take `CCC1=CC2CN3CCc4c([nH]c5ccccc45)C(C(=O)OC)(C2)C13` (stereo not given): the result was inactive.

Consider `O=[N+]([O-])c1cc2c(c([N+](=O)[O-])c1)NCc1ccccc1O2`, for which the EC50 was over 200 µM and the IC50 is over 200 µM.

Turning to `CC(=O)NC(C(=O)O)C(C)(C)SN=O` (stereo not given), the EC50 was over 1120 µM and the IC50 stood at 240 µM.

With `Cc1ccc(S(=O)(=O)NC(=O)NCCCSSCCCNC(=O)NS(=O)(=O)c2ccc(C)cc2)cc1`, the EC50 is over 200 µM and the IC50 is over 200 µM.

For `COC(=O)c1c2n(c3ccccc13)C[C@H]1OC(C)(C)O[C@@H]21`, the EC50 was over 200 µM and the IC50 turned out to be 126 µM.

As to `Cc1cc(-c2cccs2)oc(=O)c1NC(=O)c1cnccn1`, the EC50 was over 200 µM and the IC50 is over 200 µM.

As to `O=C(CN1CCCC1)Nc1ccc2c(c1)C1Oc3ccccc3CC1CO2` (stereo not given), the outcome was inactive.

Regarding `Cc1c(NC(=S)NC(=O)c2ccc([N+](=O)[O-])cc2)c(=O)n(-c2ccccc2)n1C`, the outcome was inactive.

As to `Nc1nc(N)c(CCCCc2ccccc2)c(Cc2ccccc2)n1`, the outcome was inactive.

For the compound `COC(=O)c1ccccc1C1CN=NC12Cc1c(C)cccc1C2=O` (stereo not given), the EC50 is over 200 µM and the IC50 came out at 151 µM.

As for `Nc1ncc(N)c(NCC2(CO)CC(CCc3ccccc3)C2)n1` (stereo not given), the EC50 was over 200 µM and the IC50 came out at 4.9 µM.

As for `CCCCCCCCCC=C(c1cc(Cl)c(OC)c(C(=O)OC)c1)c1cc(Cl)c(OC)c(C(=O)OC)c1`, the EC50 is over 23.4 µM and the IC50 is over 23.4 µM.

Consider `CC1(CCC(=O)c2ccc3c(c2)OCO3)OCCO1`, for which the EC50 is over 97.7 µM and the IC50 is over 97.7 µM.

Regarding `COc1ccc(/C(C)=N/NC(N)=S)c(OC)c1`, the outcome was inactive.

On to `Cn1cnc([N+](=O)[O-])c1Sc1nnc(-c2ccc(Cl)cc2)n1C`, for which the EC50 was over 372 µM and the IC50 turned out to be 3.02 µM.

With `CC1=Nc2sc3c(c2C2=NCCN12)CCCC3`, the EC50 is over 200 µM and the IC50 was 34.7 µM.

As to `CC1CCCCc2nc3c(c(=O)n21)CCCC3` (stereo not given), the EC50 is over 562 µM and the IC50 was 347 µM.

For `O=C1C(Cl)=C(Cl)C(=O)N1c1c(F)c(F)c(F)c(F)c1F`, the outcome was inactive.

Regarding `CCC1NC2CC3(C(=O)N(OC)c4ccccc43)C3CC1C2CO3` (stereo not given), the EC50 was over 269 µM and the IC50 is over 269 µM.
